Test results: patent US20060159746A1, “Compositions comprising fatty acids and amino acids” (priority 2003, published 2006)
Marks after values point to notes of the source that are not given here.

Columns and labels:
Format in all cases: in vivo
Lepr db mouse = test: OGT (1 g glucose/kg) combined with oral administration of the active ingredient; postprandial glucose and insulin; set-up: Serum insulin levels: unit not given here; conditions: for Serum glucose levels: in mg/dL (unit assumed)
Protocol: Acute effects of a nutritional formula, Starlix® and 4-HI on glycemic control in the type 2 diabetes animal model (Lepr db mouse) were studied. Animals underwent an OGT (1 g glucose/kg) combined with oral administration of the active ingredient. The following groups were tested: (A) placebo (2% Tween 80, 20 ml/kg), (B) 4-HI (100 mg/kg), (C) guar gum (150 mg/kg), (D) Starlix® (65 mg/kg), (E) Starlix®+4-HI, and (F) Starlix®+guar gum. Postprandial glucose and insulin were studied at 0, 30, 60 and 90 min.

[1] = Body weight and weight gain of Lepr db/db mice fed different fatty acid diets for 6 wks; conditions: for Body wt at 6 wks: 6 wks after dietary intervention; for Wt gain at 6 wks: 6 wks of diet
Protocol: (§1) C57BLKS/J-Lepr^db/db male mice (4 wks of age) were obtained from Jackson Laboratory, Bar Harbor, Me. Mice were initially maintained on commercial chow for 2 wks, followed by a purified stabilization diet providing 40% en as fat and 2% en as linoleic acid (LA, 18:2n-6) for another 2 wks. At 8 wks of age, a baseline oral glucose tolerance test was conducted. Based on their OGTT profile, mice were evenly distributed among 6 groups (n=6 per each group) and were fed one of 6 experimental diets designed to establish the relative importance of specific fatty acid supplementation on ameliorating insulin resistance.
(§2) Table 1 gives the predicted fatty acid profile (% en) for the 6 experimental diets. The control diet, based on butter and palm oil blend, provided 40% en as fat with 2% en as LA. […] These Lepr db/db mice were fed one of the above 6 diets for 6 weeks.
(§3) Body weights of animals were recorded each week. Insulin tolerance testing was performed after 6 weeks of dietary intervention. Mice (non-fasted) were injected intraperitoneally with 1.5 U/kg human insulin and blood glucose concentrations were determined at 0, 15, 30 and 60 min after insulin injection by tail bleeding, using a glucometer. A week later, fasting blood samples were collected by cardiac puncture, under Co2/O2 anesthesia, for analysis of plasma insulin, triglyceride (TG) and total cholesterol (TC). […] Plasma insulin was determined using the RIA kit (Linco research Inc, MO).

Lepr db/db mice [2] = test: Insulin tolerance testing (blood glucose after i.p. human insulin) after 6 weeks of dietary intervention; conditions: 1.5 U/kg human insulin i.p.
Protocol: as §1, §2, §3

Lepr db/db mice [3] = test: Fasting plasma lipids (TG, TC) in Lepr db/db mice fed different fatty acids; conditions: after diet feeding
Protocol: as §1, §2, §3

SMILES: CC(C)[C@H]1CC[C@H](C(=O)N[C@H](Cc2ccccc2)C(=O)O)CC1 [Starlix, nateglinide]
- Serum insulin levels (Lepr db mouse; 0 min of OGT): 9.8
- Serum glucose levels (Lepr db mouse; 0 min of OGT): 210
- Serum insulin levels (Lepr db mouse; 30 min of OGT): 11.18
- Serum glucose levels (Lepr db mouse; 30 min of OGT): 456.7
- Serum insulin levels (Lepr db mouse; 60 min of OGT): 5.38
- Serum glucose levels (Lepr db mouse; 60 min of OGT): 497.3
- Serum insulin levels (Lepr db mouse; 90 min of OGT): 3.75
- Serum glucose levels (Lepr db mouse; 90 min of OGT): 599
- Hypoglycemic effect, in words (Lepr db mouse; serum glucose in OGT): significant hypoglycemic effect at T90

SMILES: CC/C=C\C/C=C\C/C=C\CCCCCCCC(=O)O [LNA, linolenic acid]
- Body wt at 6 wks [1]: 50.5 ± 2.4 g
- Wt gain at 6 wks [1]: 8.3 ± 4 g
- Mean blood glucose values (percentage of intial) after insulin administration (Lepr db/db mice [2]; 0 min, non-fasted): 100 percentage of intial
- Mean blood glucose values (percentage of intial) after insulin administration (Lepr db/db mice [2]; 15 min): 138 percentage of intial
- Mean blood glucose values (percentage of intial) after insulin administration (Lepr db/db mice [2]; 30 min): 127 percentage of intial
- Mean blood glucose values (percentage of intial) after insulin administration (Lepr db/db mice [2]; 60 min): 100 percentage of intial
- Fasting plasma TC (Lepr db/db mice [3]): 326 ± 13^ mg/dl
- Fasting plasma TG (Lepr db/db mice [3]): 142 ± 27^b mg/dl

SMILES: C[C@@H]([C@H](C)O)[C@H](N)C(=O)O [4HI, 4-hydroxyisoleucine]
- Serum insulin levels (Lepr db mouse; 0 min of OGT): 8.17
- Serum glucose levels (Lepr db mouse; 0 min of OGT): 227.7
- Serum insulin levels (Lepr db mouse; 30 min of OGT): 11.27
- Serum glucose levels (Lepr db mouse; 30 min of OGT): 473.7
- Serum insulin levels (Lepr db mouse; 60 min of OGT): 6.41
- Serum glucose levels (Lepr db mouse; 60 min of OGT): 494.7
- Serum insulin levels (Lepr db mouse; 90 min of OGT): 4.63
- Serum glucose levels (Lepr db mouse; 90 min of OGT): 584

SMILES: CCCCC/C=C\C/C=C\CCCCCCCC(=O)O [LA, linoleic acid]
- Body wt at 6 wks [1]: 43.9 ± 5.4 g
- Wt gain at 6 wks [1]: 2.5 ± 4.3 g
- Mean blood glucose values (percentage of intial) after insulin administration (Lepr db/db mice [2]; 0 min, non-fasted): 100 percentage of intial
- Mean blood glucose values (percentage of intial) after insulin administration (Lepr db/db mice [2]; 15 min): 135 percentage of intial
- Mean blood glucose values (percentage of intial) after insulin administration (Lepr db/db mice [2]; 30 min): 115 percentage of intial
- Mean blood glucose values (percentage of intial) after insulin administration (Lepr db/db mice [2]; 60 min): 85 percentage of intial
- Fasting plasma TC (Lepr db/db mice [3]): 313 ± 28 ^ mg/dl
- Fasting plasma TG (Lepr db/db mice [3]): 120 ± 24^a,b mg/dl

SMILES: CC/C=C\C/C=C\C/C=C\C/C=C\C/C=C\C/C=C\CCC(=O)O [DHA, docosahexaenoic acid]
- Body wt at 6 wks [1]: 48.9 ± 3.8 g
- Wt gain at 6 wks [1]: 6.1 ± 5.2 g
- Mean blood glucose values (percentage of intial) after insulin administration (Lepr db/db mice [2]; 0 min, non-fasted): 100 percentage of intial
- Mean blood glucose values (percentage of intial) after insulin administration (Lepr db/db mice [2]; 15 min): 131 percentage of intial
- Mean blood glucose values (percentage of intial) after insulin administration (Lepr db/db mice [2]; 30 min): 120 percentage of intial
- Mean blood glucose values (percentage of intial) after insulin administration (Lepr db/db mice [2]; 60 min): 99 percentage of intial
- Fasting plasma TC (Lepr db/db mice [3]): 288 ± 39 ^ mg/dl
- Fasting plasma TG (Lepr db/db mice [3]): 101 ± 14^a,c mg/dl
